Series [1] relates to HBsAg in HBV-infected PHH. In words: Cryopreserved primary human hepatocytes (PHH) HBV infection assay, extracellular HBsAg (CLIA). Format: cell-based. As for the experimental part:
This assay is used to confirm the anti-HBV effect of the compounds in HBV PHH infection assay. Cryopreserved PHH (BioreclamationIVT, Lot YJM) was thawed at 37° C. and gently transferred into pre-warmed InVitroGRO HT medium (BioreclamationIVT, Cat. S03317). The mixture was centrifuged at 70 relative centrifugal force (RCF) for 3 minutes at RT, and the supernatant was discarded. Pre-warmed InVitroGRO CP medium (BioreclamationIVT, Cat #S03316) was added to the cell pellet to gently re-suspend cells. The cells were seeded at the density of 5.8×10^4 cells per well to collagen I coated 96-well plate (Gibco, Cat. A1142803) with the InVitroGRO CP medium. All plates were incubated at 37° C. with 5% CO2 and 85% humidity.
At 20 hours after plating, the medium was changed to PHH culture medium (Dulbecco's Modified Eagle Medium (DMEM)/F12 (1:1) (Gibco, Cat. 11320-033), 10% fetal bovine semm (Gibco Cat. 10099141), 100 U/mL penicillin, 100 μg/mL streptomycin (Gibco, Cat. 151401-122), […] (Invitrogen Cat. PHG0311L), 20 ng/mL dexamethasone (Sigma, Cat. D4902) and 250 ng/mL human recombinant insulin (Gibco, Cat. 12585-014)). And the cells were incubated at 37° C. with 5% CO2 and 85% humidity for 4 hours. The medium was then changed to pre-warmed PHH culture medium containing 4% polyethylene glycol (PEG) MW8000 (Sigma, Cat. P1458-50 ML) and 1% DMSO (Sigma, Cat. D2650). 5.8×10^6 genomic equivalents of HBV were added into the medium.
At 24 hours post-infection, the cells were gently washed with PBS and refreshed with PHH culture medium supplemented with 1% DMSO, and 0.25 mg/mL Matrix gel (Corning, Cat. 356237) at 200 μL per well. All plates were immediately placed in at 37° C. CO2 incubator.
24 hours later, serial dilutions of compounds made with DMSO were further diluted with the same culture medium (PHH culture medium supplemented with 1% DMSO and 0.25 mg/mL Matrix gel as described above) before they were added to the cells to reach desired final compound concentrations and 1% DMSO concentration. The medium containing the compounds were refreshed every three days.
At 9 days post-compound treatment, extracellular HBsAg level were measured with Chemiluminescence Immuno Assay (CLIA) kit (Autobio, HBsAg Quantitative CLIA). Extracellular HBV DNA was extracted by MagNA Pure 96 system (Roche) and then determined by quantitative PCR with the following primers and probe: […]
HBsAg IC50 and HBV DNA IC50 values were derived from the dose-response curve using 4 parameter logistic curve fit method. The compounds of formula (I) have HBsAg IC50<20 μM, particularly <1 μM; and HBV DNA IC50<50 μM.

Series [2] in a line: Human microsome stability assay. The series is classed as in vitro ADME. The note with it: human liver microsomes, 1 μM test compound, 0.5 mg/mL microsomal protein, 37° C., pH 7.4, 0-30 minutes. The essentials: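 Parent compound remaining was measured by LC-MS/MS at 0, 3, 6, 9, 15 and 30 min, following ACN quench. Reactions held 1 μM compound and 0.5 mg/mL human liver microsomal protein in pH 7.4 phosphate buffer at 37 °C, started by NADPH regeneration (1 mM NADP, 1 mM MgCl2); controls lacked NADPH.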
In general terms: Liver microsomes are vesicles of endoplasmic reticulum, rich in cytochrome P450 enzymes.

Series [3] deals with HBeAg (surrogate marker for cccDNA) in HepDES19 cells. The series is described as follows: Engineered HepDES19 primary screen assay (HBeAg ELISA). Format: cell-based, HBV. The note with it: Hepatitis B virus, HepDES19, 120 h, read-out: IC50 (HBeAg level, HepDES19 primary screen assay), HepDES19 cells, 5 days compound incubation, HBeAg ELISA. The essentials: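 IC50 values come from 4-parameter logistic fits of HBeAg ELISA signal, the cccDNA surrogate, with CCK-8 run in parallel for viability. Compounds at half-log dilutions with 1% DMSO were applied for 5 days at 37 °C to HepDES19 cells previously cultured 8 days without Tet.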

Setting [4] is: Hepatitis B virus, Hepatocyte, 216 h, read-out: HBsAg IC50, Cryopreserved PHH infected with HBV, 9 days post-compound treatment, extracellular HBsAg.

Broadly, the IC50 is the concentration that gives 50% inhibition.

Read-outs that look alike come from different tables or passages of the source.

For `O=C(O)CCCOc1cc(C(F)(F)F)ccc1-c1cc(=O)c2cccc(Cl)c2o1` [Example A052, 4-[2-(8-chloro-4-oxo-chromen-2-yl)-5-(trifluoromethyl)phenoxy]butanoic acid], the IC50 in series [1] (setting [4]) was 6.91 µM; in series [3] it was 0.213 µM. In series [2], the “Clearance of Human microsome” value came to 0.481 L/h/kg.

As to `O=C(O)CCCOc1cc(OC(F)(F)F)ccc1-c1cc(=O)c2cccc(Cl)c2o1` [Example A053, 4-[2-(8-chloro-4-oxo-chromen-2-yl)-5-(trifluoromethoxy)phenoxy]butanoic acid], the IC50 in series [1] (setting [4]) turned out to be 3.57 µM; in series [3], 0.491 µM. Also, the “Clearance of Human microsome” value in series [2] turned out to be 0.46 L/h/kg.

`Cc1cc(-c2cc(=O)c3cccc(Cl)c3o2)c(OCCCC(=O)O)cc1Br` [Example A054, 4-[5-bromo-2-(8-chloro-4-oxo-chromen-2-yl)-4-methyl-phenoxy]butanoic acid]: the IC50 in series [1] (setting [4]) is 4.21 µM; in series [3], 1.47 µM. In series [2], the “Clearance of Human microsome” value came to 0.369 L/h/kg.

`COc1cc(OCCCC(=O)O)c(-c2cc(=O)c3cccc(Cl)c3o2)cc1OC` [Example A056, 4-[2-(8-chloro-4-oxo-chromen-2-yl)-4,5-dimethoxy-phenoxy]butanoic acid]: the IC50 in series [1] (setting [4]) came out at 9.21 µM; in series [3], 3.11 µM. In addition, the “Clearance of Human microsome” value in series [2] turned out to be 0.369 L/h/kg.

`Cc1cc(-c2cc(=O)c3cccc(Cl)c3o2)c(OCCCC(=O)O)cc1Cl` [Example A057, 4-[5-chloro-2-(8-chloro-4-oxo-chromen-2-yl)-4-methyl-phenoxy]butanoic acid]: the figures for the IC50 in series [1] (setting [4]) and in series [3] were 9.76 µM and 1.33 µM, respectively. Further, the “Clearance of Human microsome” value in series [2] worked out at 0.369 L/h/kg.

`O=C(O)[C@H]1CCN(C(=O)COc2cc(C(F)(F)F)ccc2-c2cc(=O)c3cccc(Cl)c3o2)C1` [Example A083, (3S)-1-[2-[2-(8-chloro-4-oxo-chromen-2-yl)-5-(trifluoromethyl)phenoxy]acetyl]pyrrolidine-3-carboxylic acid]: the IC50 in series [1] (setting [4]) is 9.74 µM; in series [3] it was 5.57 µM. The “Clearance of Human microsome” value in series [2] amounted to 0.369 L/h/kg.

With `O=C(CCOc1cc(C(F)(F)F)ccc1-c1cc(=O)c2cccc(Cl)c2o1)NS(=O)(=O)C1CC1` [Example A084, 3-[2-(8-chloro-4-oxo-chromen-2-yl)-5-(trifluoromethyl)phenoxy]-N-cyclopropylsulfonyl-propanamide], the IC50 was 1.02 µM in series [1] (setting [4]) and 1.45 µM in series [3]. Besides, in series [2], the “Clearance of Human microsome” value was determined as 0.45 L/h/kg.

With `O=C(O)[C@H](COc1cc(C(F)(F)F)ccc1-c1cc(=O)c2cccc(Cl)c2o1)NS(=O)(=O)C1CC1` [Example A096, (2S)-3-[2-(8-chloro-4-oxo-chromen-2-yl)-5-(trifluoromethyl)phenoxy]-2-(cyclopropylsulfonylamino)propanoic acid], the half-inhibitory concentration (IC50) in series [1] (setting [4]) came to 1.24 µM; in series [3], 0.114 µM. For the same compound, the “Clearance of Human microsome” value in series [2] worked out at 0.369 L/h/kg.

As to `Cc1ccc(S(=O)(=O)N[C@@H](COc2cc(C(F)(F)F)ccc2-c2cc(=O)c3cccc(Cl)c3o2)C(=O)O)cc1` [Example A097, (2S)-3-[2-(8-chloro-4-oxo-chromen-2-yl)-5-(trifluoromethyl)phenoxy]-2-(p-tolylsulfonylamino)propanoic acid], the IC50 was found to be 4.03 µM in series [1] (setting [4]) and 0.983 µM in series [3]. Besides, the “Clearance of Human microsome” value in series [2] was determined as 0.527 L/h/kg.

Regarding `CCNS(=O)(=O)N[C@@H](COc1cc(C(F)(F)F)ccc1-c1cc(=O)c2cccc(Cl)c2o1)C(=O)O` [Example A099, (2S)-3-[2-(8-chloro-4-oxo-chromen-2-yl)-5-(trifluoromethyl)phenoxy]-2-(ethylsulfamoylamino)propanoic acid], the IC50 in series [1] (setting [4]) turned out to be 0.14 µM; in series [3], 0.0663 µM. Besides, the “Clearance of Human microsome” value in series [2] worked out at 0.572 L/h/kg.

Take `O=c1cc(-c2ccccc2O[C@H]2C[C@@H](C(=O)O)C2)oc2c(Cl)cccc12` [Example B002-A, cis-3-[2-(8-chloro-4-oxo-chromen-2-yl)phenoxy]cyclobutanecarboxylic acid]: the IC50 came to 2.02 µM in series [1] (setting [4]) and 0.162 µM in series [3]. Further, the “Clearance of Human microsome” value in series [2] was found to be 0.369 L/h/kg.

For the compound `O=c1cc(-c2ccccc2O[C@H]2C[C@H](C(=O)O)C2)oc2c(Cl)cccc12` [Example B002-B, trans-3-[2-(8-chloro-4-oxo-chromen-2-yl)phenoxy]cyclobutanecarboxylic acid], the IC50 in series [1] (setting [4]) was 3.35 µM; in series [3], 0.112 µM. Moreover, in series [2], the “Clearance of Human microsome” value is 0.369 L/h/kg.

As for `O=C(O)C1CC(Oc2cc(C(F)(F)F)ccc2-c2cc(=O)c3cccc(Cl)c3o2)C1` (stereo not drawn) [Example B003, 3-[2-(8-chloro-4-oxo-chromen-2-yl)-5-(trifluoromethyl)phenoxy]cyclobutanecarboxylic acid], the IC50 was 4.37 µM in series [1] (setting [4]) and 0.468 µM in series [3]. Besides, the “Clearance of Human microsome” value in series [2] is 0.369 L/h/kg.

In the case of `COc1cc(-c2cc(=O)c3cccc(Cl)c3o2)c(OC2CC(C(=O)O)C2)cc1Br` (stereo not drawn) [Example B004, 3-[5-bromo-2-(8-chloro-4-oxo-chromen-2-yl)-4-methoxy-phenoxy]cyclobutanecarboxylic acid], the IC50 turned out to be 5.52 µM in series [1] (setting [4]) and 0.556 µM in series [3]. Further, the “Clearance of Human microsome” value in series [2] came to 0.369 L/h/kg.

On to `O=C(O)C1CC(Oc2cc(OC(F)(F)F)ccc2-c2cc(=O)c3cccc(Cl)c3o2)C1` (stereo not drawn) [Example B005, 3-[2-(8-chloro-4-oxo-chromen-2-yl)-5-(trifluoromethoxy)phenoxy]cyclobutanecarboxylic acid], for which the IC50 was determined as 6.97 µM in series [1] (setting [4]) and 0.219 µM in series [3]. Besides, the “Clearance of Human microsome” value in series [2] amounted to 0.369 L/h/kg.

In the case of `O=C(O)C1CC(Oc2cc(OC(F)(F)F)c(Br)cc2-c2cc(=O)c3cccc(Cl)c3o2)C1` (stereo not drawn) [Example B007, 3-[4-bromo-2-(8-chloro-4-oxo-chromen-2-yl)-5-(trifluoromethoxy)phenoxy]cyclobutanecarboxylic acid], the IC50 in series [1] (setting [4]) was found to be 2.24 µM; in series [3] it was 2.31 µM. Moreover, the “Clearance of Human microsome” value in series [2] came out at 0.369 L/h/kg.

As for `O=C(O)C1CCC(Oc2cc(Br)ccc2-c2cc(=O)c3cccc(Cl)c3o2)CC1` (stereo not drawn) [Example B010, 4-[5-bromo-2-(8-chloro-4-oxo-chromen-2-yl)phenoxy]cyclohexanecarboxylic acid], the IC50 in series [1] (setting [4]) was determined as 7.08 µM; in series [3], 2.76 µM. For the same compound, the “Clearance of Human microsome” value in series [2] stood at 0.369 L/h/kg.

With `COc1ccc(-c2cc(=O)c3cccc(Cl)c3o2)c(O[C@H]2C[C@@H](C(=O)O)C2)c1` [Example B011-A, Cis-3-[2-(8-chloro-4-oxo-chromen-2-yl)-5-methoxy-phenoxy]cyclobutanecarboxylic acid], the IC50 came out at 2.32 µM in series [1] (setting [4]) and 0.851 µM in series [3]. The “Clearance of Human microsome” value in series [2] came to 0.501 L/h/kg.

`Cc1cc(-c2cc(=O)c3cccc(Cl)c3o2)c(O[C@H]2C[C@@H](C(=O)O)C2)cc1Cl` [Example B012-A, Cis-3-[5-chloro-2-(8-chloro-4-oxo-chromen-2-yl)-4-methyl-phenoxy]cyclobutanecarboxylic acid]: the IC50 is 6.01 µM in series [1] (read-out: HBsAg IC50, Cryopreserved PHH infected with HBV, 9 days post-compound treatment, extracellular HBsAg) and 3.27 µM in series [3]. Besides, the “Clearance of Human microsome” value in series [2] turned out to be 0.369 L/h/kg.

The values above are taken from patent US11708344B2, “Flavone derivatives for the treatment and prophylaxis of hepatitis B virus disease” (Hoffmann-La Roche Inc., priority 2018, dated 2023).
